Results taken from ChEMBL document CHEMBL5029155, “Design, Synthesis, and Biological Evaluation of Stable Colchicine-Binding Site Tubulin Inhibitors 6-Aryl-2-benzoyl-pyridines as Potential Anticancer Agents” (J Med Chem, 2021).
pIC50: −log10 of the molar value. In brackets after ≈: the same amount, converted by molar mass. Activity calls are given as the source filed them. The calls are words filed in the database; no cut-off is given here.

Legend:
[1] = Cytotoxicity against paclitaxel resistant human MDA-MB-231/TxR cells measured after 72 hrs […]; assay type: functional, cell-based
[2] = system: Salmonella typhimurium; experiment: Mutagenicity in Salmonella typhimurium […] by Ames test; assay type: toxicity, organism-based; settings: salmonella enterica subsp. enterica serovar typhimurium
[3] = Systemic toxicity in human A375/TxR cells xenografted in SCID mouse tumor model assessed as pathological change in lungs at 10 to 20 mg/kg, ip by H and E staining based analysis; assay type: organism-based; settings: in vivo, dose 10-20 mg/kg
[4] = system: Salmonella typhimurium; experiment: Mutagenicity in Salmonella typhimurium TA1535 by Ames test; assay type: toxicity, organism-based; settings: salmonella enterica subsp. enterica serovar typhimurium
[5] = Induction of cell cycle arrest in human A375/TxR cells assessed as accumulation at G2/M phase at 10 nM measured for 24 hrs by PI staining based flow cytometry analysis
[6] = Antitumor activity against human A375/TxR cells xenografted in SCID mouse assessed as reduction in tumor volume at 20 mg/kg, ip administered 3 times/week for 18 days; assay type: functional; parameters: scale not given: the % may be the effect or the level left; settings: time 18 day
[7] = Metabolic stability in human liver microsomes assessed as intrinsic clearance in presence of NADPH regenerating system by UPLC-MS analysis; assay type: ADME, Microsome; settings: read-out: CLH
[8] = Metabolic stability in mouse liver microsomes assessed as half life in presence of NADPH regenerating system by UPLC-MS analysis; assay type: ADME, Microsome; settings: microsomes
[9] = Aqueous solubility of compound in pH 7.4 PBS buffer; assay type: physicochemical
[10] = molecular target: CYP2D6 (Homo sapiens, UniProt P10635); experiment: Inhibition of CYP2D6 in human liver microsomes using dextromethorphan as substrate at 10 uM; assay type: ADME; settings: probe dextromethorphan
[11] = system: MDA-MB-453; experiment: Antiproliferative activity against human MDA-MB-453 cells assessed as cell growth inhibition incubated for 72 hrs by MTS assay; assay type: functional, cell-based; settings: MDA-MB-453, 72 h
[12] = Apparent volume of distribution during terminal phase in NSG mouse at 10 mg/kg, ip; assay type: ADME, organism-based; settings: in vivo, read-out: Vz/F
[13] = system: MDA-MB-231; experiment: Antiproliferative activity against human MDA-MB-231 cells assessed as cell growth inhibition incubated for 72 hrs by MTS assay; assay type: functional, cell-based; settings: MDA-MB-231, 72 h
[14] = system: A375/TxR; experiment: Antimetastatic activity against human A375/TxR cells xenografted in SCID mouse assessed as metastatic in liver at 20 mg/kg, ip; assay type: functional, organism-based
[15] = molecular target: hERG (KCNH2) (Homo sapiens, UniProt Q12809); experiment: Inhibition of human ERG at 10 uM
[16] = Antitumor activity against human A375/TxR cells xenografted in SCID mouse assessed as reduction in tumor volume at 10 mg/kg, ip administered 3 times/week for 18 days; assay type: functional; parameters: scale not given: the % may be the effect or the level left; settings: time 18 day
[17] = Systemic toxicity in human A375/TxR cells xenografted in SCID mouse tumor model assessed as pathological change in spleen at 10 to 20 mg/kg, ip by H and E staining based analysis; assay type: organism-based; settings: in vivo, dose 10-20 mg/kg
[18] = system: A375/TxR; experiment: Antimetastatic activity against human A375/TxR cells xenografted in SCID mouse assessed as metastatic in lungs; assay type: functional
[19] = system: CYP3A; experiment: Inhibition of CYP3A in human liver microsomes using midazolam as substrate at 10 uM; assay type: ADME; settings: probe midazolam
[20] = AUClast in NSG mouse at 10 mg/kg, ip; assay type: ADME, organism-based; parameters: time 0 - last, route intraperitoneal, dose 10 mg/kg; settings: in vivo
[21] = Cmax in NSG mouse at 10 mg/kg, ip; assay type: ADME, organism-based; parameters: route intraperitoneal, dose 10 mg/kg; settings: in vivo
[22] = molecular target: CYP2C19 (Homo sapiens, UniProt P33261); experiment: Inhibition of CYP2C19 in human liver microsomes using omeprazole as substrate at 10 uM; assay type: ADME; settings: probe omeprazole
[23] = Clearance in NSG mouse at 10 mg/kg, ip; assay type: ADME, organism-based; settings: in vivo
[24] = molecular target: T1, CYP1A2 (description prints CYP1AA) (Homo sapiens, UniProt P05177); experiment: Inhibition of […] in human liver microsomes using phenacetin as substrate at 10 uM; assay type: ADME; settings: probe phenacetin
T1 sequence (P05177 whole entry): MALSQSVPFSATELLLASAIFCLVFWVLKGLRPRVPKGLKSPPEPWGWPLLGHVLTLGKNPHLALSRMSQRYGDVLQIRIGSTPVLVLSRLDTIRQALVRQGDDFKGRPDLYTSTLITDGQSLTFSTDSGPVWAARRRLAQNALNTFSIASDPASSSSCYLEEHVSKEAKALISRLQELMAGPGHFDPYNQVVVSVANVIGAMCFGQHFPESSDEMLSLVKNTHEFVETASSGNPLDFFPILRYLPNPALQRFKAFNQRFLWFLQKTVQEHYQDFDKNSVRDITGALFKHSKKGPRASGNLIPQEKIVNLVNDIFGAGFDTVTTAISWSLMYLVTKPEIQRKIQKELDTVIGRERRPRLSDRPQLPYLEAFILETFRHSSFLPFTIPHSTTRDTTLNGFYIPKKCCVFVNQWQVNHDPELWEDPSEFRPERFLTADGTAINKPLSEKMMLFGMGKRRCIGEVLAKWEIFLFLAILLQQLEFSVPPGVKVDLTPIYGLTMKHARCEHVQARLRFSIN

[25] = molecular target: T2, CYP2B6 (Homo sapiens, UniProt P20813); experiment: Inhibition of CYP2B6 in human liver microsomes using bupropion as substrate at 10 uM; assay type: ADME; settings: probe bupropion
T2 sequence (P20813 whole entry): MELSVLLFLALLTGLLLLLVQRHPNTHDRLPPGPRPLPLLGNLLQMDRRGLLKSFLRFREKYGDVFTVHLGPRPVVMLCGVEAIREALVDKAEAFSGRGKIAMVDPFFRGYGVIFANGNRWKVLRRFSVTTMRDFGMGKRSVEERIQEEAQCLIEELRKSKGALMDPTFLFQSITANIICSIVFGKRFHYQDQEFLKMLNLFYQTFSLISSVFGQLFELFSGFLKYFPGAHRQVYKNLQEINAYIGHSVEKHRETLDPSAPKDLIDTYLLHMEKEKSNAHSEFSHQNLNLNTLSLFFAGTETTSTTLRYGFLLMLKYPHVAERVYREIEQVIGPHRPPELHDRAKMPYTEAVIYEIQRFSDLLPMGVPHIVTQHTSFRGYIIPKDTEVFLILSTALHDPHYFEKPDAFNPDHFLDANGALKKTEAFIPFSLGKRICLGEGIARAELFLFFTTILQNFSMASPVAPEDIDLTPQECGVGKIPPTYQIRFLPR

[26] = Antimetastatic activity against human A375/TxR cells xenografted in SCID mouse assessed as metastatic in liver at 10 mg/kg, ip; assay type: functional
[27] = Systemic toxicity in human A375/TxR cells xenografted in SCID mouse tumor model assessed as pathological change in kidney at 10 to 20 mg/kg, ip by H and E staining based analysis; assay type: organism-based; settings: in vivo, dose 10-20 mg/kg
[28] = Induction of apoptosis in human A375/TxR cells assessed as apoptotic cells at 2.5 nM measured for 24 hrs by annexin VFITC /PI staining based analysis (reference value: […]); assay type: functional
[29] = system: Salmonella typhimurium; experiment: Mutagenicity in Salmonella typhimurium TA98 by Ames test; assay type: toxicity, organism-based; settings: salmonella enterica subsp. enterica serovar typhimurium
[30] = system: A375/TxR; experiment: Induction of cell cycle arrest in human A375/TxR cells assessed as accumulation at G2/M phase measured for 24 hrs by PI staining based flow cytometry analysis; assay type: functional

Chain of CYP2C19 (P33261 whole entry): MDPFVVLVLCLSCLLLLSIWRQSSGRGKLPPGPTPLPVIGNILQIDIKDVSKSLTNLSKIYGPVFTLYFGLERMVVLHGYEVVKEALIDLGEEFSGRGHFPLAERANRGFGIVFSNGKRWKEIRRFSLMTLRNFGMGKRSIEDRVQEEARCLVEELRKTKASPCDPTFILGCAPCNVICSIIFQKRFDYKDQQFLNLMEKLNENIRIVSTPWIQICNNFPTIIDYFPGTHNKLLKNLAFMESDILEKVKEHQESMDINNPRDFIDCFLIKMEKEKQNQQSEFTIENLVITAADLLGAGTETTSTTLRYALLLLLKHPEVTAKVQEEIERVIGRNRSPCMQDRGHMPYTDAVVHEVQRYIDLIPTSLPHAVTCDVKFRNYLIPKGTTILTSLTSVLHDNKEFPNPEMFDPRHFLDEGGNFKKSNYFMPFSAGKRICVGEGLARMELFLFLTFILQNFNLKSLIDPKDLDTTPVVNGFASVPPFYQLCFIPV
Chain of hERG (KCNH2) (Q12809 whole entry): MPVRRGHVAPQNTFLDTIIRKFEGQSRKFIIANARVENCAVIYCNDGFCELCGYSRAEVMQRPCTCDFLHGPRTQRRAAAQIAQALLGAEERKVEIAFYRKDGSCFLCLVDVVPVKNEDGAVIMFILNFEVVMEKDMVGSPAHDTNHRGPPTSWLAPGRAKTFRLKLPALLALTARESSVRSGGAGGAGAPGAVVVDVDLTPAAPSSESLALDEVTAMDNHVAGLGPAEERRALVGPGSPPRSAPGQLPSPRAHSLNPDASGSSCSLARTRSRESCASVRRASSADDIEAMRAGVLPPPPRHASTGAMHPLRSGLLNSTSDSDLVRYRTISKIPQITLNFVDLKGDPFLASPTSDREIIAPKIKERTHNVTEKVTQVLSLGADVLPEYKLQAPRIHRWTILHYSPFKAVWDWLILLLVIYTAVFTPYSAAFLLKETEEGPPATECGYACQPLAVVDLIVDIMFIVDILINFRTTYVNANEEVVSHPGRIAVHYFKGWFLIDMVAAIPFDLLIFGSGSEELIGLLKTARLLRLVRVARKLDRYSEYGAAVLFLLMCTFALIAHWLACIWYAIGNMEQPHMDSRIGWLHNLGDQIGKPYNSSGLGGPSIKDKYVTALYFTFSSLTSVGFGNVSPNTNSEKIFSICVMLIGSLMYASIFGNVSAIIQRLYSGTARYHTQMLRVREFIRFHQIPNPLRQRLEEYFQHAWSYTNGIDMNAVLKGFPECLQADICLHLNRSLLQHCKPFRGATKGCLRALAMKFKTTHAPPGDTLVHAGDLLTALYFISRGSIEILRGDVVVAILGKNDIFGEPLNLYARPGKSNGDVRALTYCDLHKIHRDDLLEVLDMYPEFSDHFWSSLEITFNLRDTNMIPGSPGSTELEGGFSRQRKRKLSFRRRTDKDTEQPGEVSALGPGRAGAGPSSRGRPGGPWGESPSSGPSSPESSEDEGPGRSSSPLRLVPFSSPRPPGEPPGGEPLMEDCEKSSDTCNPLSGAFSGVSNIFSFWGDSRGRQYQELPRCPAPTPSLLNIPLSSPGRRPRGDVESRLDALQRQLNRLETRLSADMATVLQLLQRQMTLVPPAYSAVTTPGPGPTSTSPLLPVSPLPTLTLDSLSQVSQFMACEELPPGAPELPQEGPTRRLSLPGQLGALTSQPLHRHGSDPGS
Chain of CYP2D6 (P10635 whole entry): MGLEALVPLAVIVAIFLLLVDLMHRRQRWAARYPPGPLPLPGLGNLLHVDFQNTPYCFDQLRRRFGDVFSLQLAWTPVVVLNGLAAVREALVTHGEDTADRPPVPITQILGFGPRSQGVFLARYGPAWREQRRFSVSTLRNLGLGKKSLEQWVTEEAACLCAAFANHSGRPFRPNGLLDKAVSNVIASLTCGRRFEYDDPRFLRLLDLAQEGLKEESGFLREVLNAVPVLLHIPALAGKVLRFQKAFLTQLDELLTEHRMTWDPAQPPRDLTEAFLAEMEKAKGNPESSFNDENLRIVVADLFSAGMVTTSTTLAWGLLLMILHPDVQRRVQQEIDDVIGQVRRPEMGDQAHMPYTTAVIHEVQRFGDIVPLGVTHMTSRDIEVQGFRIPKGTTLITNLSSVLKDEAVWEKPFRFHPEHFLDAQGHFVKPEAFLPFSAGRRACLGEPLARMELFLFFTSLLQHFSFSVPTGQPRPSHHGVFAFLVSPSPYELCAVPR

Question: Which results are given for `COc1cc(C(=O)c2nc(-c3ccc(C)c(O)c3)ccc2F)cc(OC)c1OC`?
Answer: pIC50 [1]: 8.68; Activity [2]: Non-Toxic; Activity [3]: Non-Toxic; Activity [4]: Non-Toxic; Activity [5]: 62%; Activity [6]: 72.9%; CLint scaled [7]: 2.54 L/h/kg; t1/2 [8]: > 4 h; solubility [9]: 0.1 µM (≈ 0.0397 µg/mL); inhibition at 10 µM [10]: 11.9%; pIC50 [11]: 8.85; Vd/F [12]: 12.3 L/kg; pIC50 [13]: 8.66; Activity [14]: inactive; inhibition at 10 µM [15]: 5.14%; Activity [16]: 57.6%; Activity [17]: Non-Toxic; Activity [18]: Dose-Dependent Effect; inhibition at 10 µM [19]: 34.7%; AUClast [20]: 4872.07 h/ng/mL; Cmax [21]: 6.21 µg/mL; inhibition at 10 µM [22]: 49%; CL/F [23]: 2.05 L/h/kg; inhibition at 10 µM [24]: 50.9%; inhibition at 10 µM [25]: 12%; Activity [26]: 33%; Activity [27]: Non-Toxic; Activity [28]: 14.5%; Activity [29]: Non-Toxic; Activity [30]: Dose-Dependent Effect
